Drawing on US20060148858A1, “1, 2-Azole derivatives with hypoglycemic and hypolipidemic activity” (priority 2002, published 2006), this text covers melting point for 32 molecules.

The structures appear in SMILES notation.

For orientation: melting point means the temperature of the solid-liquid transition. The molecule `CCOc1nn(-c2ccc(C(F)(F)F)cn2)cc1CCCOc1cc(CCC(=O)O)cc(OC)c1` [Example 167, 3-[5-(3-{3-ethoxy-1-[5-(trifluoromethyl)-2-pyridyl]-1H-pyrazol-4-yl}propoxy)-3-methoxyphenyl]propanoic acid] returned a melting point of 99 to 100 °C.

Turning to `CCOc1nn(-c2ccccn2)cc1CCCOc1cc(CCC(=O)O)n(-c2ccccc2)n1` [Example 103, 3-(3-{3-[3-ethoxy-1-(2-pyridinyl)-1H-pyrazol-4-yl]propoxy}-1-phenyl-1H-pyrazol-5-yl)propanoic acid], the melting point was in the range of 156 to 157 °C.

Consider `Cc1cccc(CC(=O)O)c1OCCCc1cn(-c2ccc(C(F)(F)F)cn2)nc1C(C)(C)C` [Example 346, [2-(3-{3-tert-butyl-1-[5-(trifluoromethyl)-2-pyridinyl]-1H-pyrazol-4-yl}propoxy)-3-methylphenyl]acetic acid], for which the melting point is 86 to 87 °C.

Take `O=C(O)CCc1cc(OCCCCc2cc(-c3ccc(C(F)(F)F)cc3)no2)nn1-c1ccccc1` [Example 11, 3-[1-phenyl-3-(4-{3-[4-(trifluoromethyl)phenyl]-5-isoxazolyl}butoxy)-1H-pyrazol-5-yl]propionic acid]: the melting point is 139 to 140 °C.

In turn, `Cc1nn(-c2ccc(C(F)(F)F)cn2)cc1CCCOc1cccc(OC(C)(C)C(=O)O)c1` [Example 130, 2-methyl-2-[3-(3-{3-methyl-1-[5-(trifluoromethyl)-2-pyridyl]-1H-pyrazol-4-yl}propoxy)phenoxy]propionic acid] registered a melting point of 107 to 108 °C.

`COc1ccc(OCCCc2cn(-c3ccc(C(F)(F)F)cn3)nc2C(C)C)c(CC(=O)O)c1` [Example 206, [2-(3-{3-isopropyl-1-[5-(trifluoromethyl)-2-pyridyl]-1H-pyrazol-4-yl}propoxy)-5-methoxyphenyl]acetic acid] displayed a melting point of 143 to 144 °C.

In the case of `Cc1nn(-c2ccc(C(F)(F)F)cn2)cc1COc1cc(CCC(=O)O)n(C)n1` [Example 38, 3-(1-methyl-3-{3-methyl-1-[5-(trifluoromethyl)-2-pyridyl]-1H-pyrazol-4-ylmethoxy}-1H-pyrazol-5-yl)propionic acid], the melting point lay in the range of 154 to 155 °C.

Molecule `CCCc1nn(-c2ccc(C(F)(F)F)cn2)cc1CCCOc1nn(C)cc1CC(=O)O` [Example 87, [1-methyl-3-(3-{3-propyl-1-[5-(trifluoromethyl)-2-pyridyl]-1H-pyrazol-4-yl}propoxy)-1H-pyrazol-4-yl]acetic acid] registered a melting point of 119 to 120 °C.

`CCOc1nn(-c2cc(C(F)(F)F)ccn2)cc1CCCOc1ccc(CCC(=O)O)cc1OC` [Example 287, 3-[4-(3-{3-ethoxy-1-[4-(trifluoromethyl)-2-pyridinyl]-1H-pyrazol-4-yl}propoxy)-3-methoxyphenyl]propanoic acid] had a melting point of 111 to 112 °C.

In the case of `O=C(O)Cc1cccc(OCc2cn(-c3ccc(C(F)(F)F)cn3)nc2C2CCCCC2)c1` [Example 187, [3-({3-cyclohexyl-1-[5-(trifluoromethyl)-2-pyridyl]-1H-pyrazol-4-yl}methoxy)phenyl]acetic acid], the melting point was in the range of 129 to 130 °C.

In the case of `CCCc1nn(-c2ccc(C(F)(F)F)cn2)cc1CCCCn1cc(CCC(=O)[O-])c(OCC)n1.[Na+]` [Example 78, sodium 3-[3-ethoxy-1-(4-{3-propyl-1-[5-(trifluoromethyl)-2-pyridinyl]-1H-pyrazol-4-yl}butyl)-1H-pyrazol-4-yl]propanoate], the melting point is 250 to 251 °C.

The molecule `COc1cccc(CCC(=O)O)c1OCCCc1cn(-c2ccc(C(F)(F)F)cn2)nc1C(C)C` [Example 323, 3-[2-(3-{3-isopropyl-1-[5-(trifluoromethyl)-2-pyridinyl]-1H-pyrazol-4-yl}propoxy)-3-methoxyphenyl]propanoic acid] showed a melting point of 112 to 113 °C.

Consider `CCc1cccc(CC(=O)O)c1OCCCc1cn(-c2ccc(C(F)(F)F)cn2)nc1C(C)(C)C` [Example 347, [2-(3-{3-tert-butyl-1-[5-(trifluoromethyl)-2-pyridinyl]-1H-pyrazol-4-yl}propoxy)-3-ethylphenyl]acetic acid], for which the melting point is 98 to 99 °C.

`CCCc1nn(-c2ccc(C(F)(F)F)cn2)cc1COc1ccc(CCC(=O)O)c(OC)c1` [Example 120, 3-[2-methoxy-4-({3-propyl-1-[5-(trifluoromethyl)-2-pyridyl]-1H-pyrazol-4-yl}methoxy)phenyl]propionic acid] displayed a melting point of 153 to 154 °C.

Turning to `CCOc1cc(OCCCc2cn(-c3ccc(C(F)(F)F)cn3)nc2OCc2ccccc2)ccc1CCC(=O)O` [Example 156, 3-[4-(3-{3-benzyloxy-1-[5-(trifluoromethyl)-2-pyridyl]-1H-pyrazol-4-yl}propoxy)-2-ethoxyphenyl]propanoic acid], the melting point was in the range of 106 to 107 °C.

Regarding `CCCc1nn(-c2ccc(C(F)(F)F)cc2)cc1CCCOc1c(CC(=O)O)cccc1OC` [Example 297, [3-methoxy-2-(3-{3-propyl-1-[4-(trifluoromethyl)phenyl]-1H-pyrazol-4-yl}propoxy)phenyl]acetic acid], the melting point lay in the range of 95 to 96 °C.

On to `CC(C)c1nn(-c2ccc(C(F)(F)F)cn2)cc1CCCOc1nn(C)cc1CCC(=O)O` [Example 310, 3-[3-(3-{3-isopropyl-1-[5-(trifluoromethyl)-2-pyridinyl]-1H-pyrazol-4-yl}propoxy)-1-methyl-1H-pyrazol-4-yl]propanoic acid], for which the melting point was 124 to 125 °C.

`CCCC(=O)Nc1ccc(-n2cc(CCCOc3c(CC(=O)O)cccc3OC)c(C(C)C)n2)nc1` [Example 267, (2-{3-[1-(5-butyrylamino-2-pyridyl)-3-isopropyl-1H-pyrazol-4-yl]propoxy}-3-methoxyphenyl)acetic acid] returned a melting point of 119 to 120 °C.

The molecule `CCCc1nn(-c2ccc(C(F)(F)F)cn2)cc1CCCOc1cccc(CCC(=O)O)c1` [Example 84, 3-[3-(3-{3-propyl-1-[5-(trifluoromethyl)-2-pyridyl]-1H-pyrazol-4-yl}propoxy)phenyl]propionic acid] registered a melting point of 97 to 98 °C.

For the molecule `CCOc1nn(-c2ccc(C(F)(F)F)cn2)cc1CCCOc1nn(-c2ccccc2)cc1CC(=O)O` [Example 136, [3-(3-{3-ethoxy-1-[5-(trifluoromethyl)-2-pyridyl]-1H-pyrazol-4-yl}propoxy)-1-phenyl-1H-pyrazol-4-yl]acetic acid], the melting point was 117 to 118 °C.

On to `COc1cccc(CC(=O)O)c1OCCCc1cn(-c2nnc(C(F)(F)F)s2)nc1C(C)C` [Example 194, [3-methoxy-2-(3-{3-(1-methylethyl)-1-[5-(trifluoromethyl)-1,3,4-thiadiazole-2-yl]-1H-pyrazol-4-yl}propoxy)phenyl]acetic acid], for which the melting point was 144 to 145 °C.

In turn, `O=C(O)c1ccc(OCCCc2cc(-c3ccc(C(F)(F)F)cc3)no2)cc1` [Example 2, 4-(3-{3-[4-(trifluoromethyl)phenyl]-5-isoxazolyl}propoxy)benzoic acid] gave a melting point of 221 to 222 °C.

`COc1cccc(CC(=O)O)c1OCCCc1cn(-c2ncc(Cl)cc2Cl)nc1C(C)C` [Example 336, (2-{3-[1-(3,5-dichloro-2-pyridyl)-3-isopropyl-1H-pyrazol-4-yl]propoxy}-3-methoxyphenyl)acetic acid] registered a melting point of 105 to 106 °C.

`O=C(O)Cc1cccc(OCCCCc2cc(-c3ccc(C(F)(F)F)cc3)no2)c1` [Example 16, [3-(4-{3-[4-(trifluoromethyl)phenyl]-5-isoxazolyl}butoxy)phenyl]acetic acid] registered a melting point of 134 to 135 °C.

Molecule `O=C(O)Cc1ccccc1OCCCCc1cc(-c2ccc(C(F)(F)F)cc2)no1` [Example 17, [2-(4-{3-[4-(trifluoromethyl)phenyl]-5-isoxazolyl}butoxy)phenyl]acetic acid] returned a melting point of 122 to 123 °C.

Consider `CC(C)c1nn(-c2ccccn2)cc1CCCOc1ccccc1CC(=O)O` [Example 309, (2-{3-[3-isopropyl-1-(2-pyridinyl)-1H-pyrazol-4-yl]propoxy}phenyl)acetic acid], for which the melting point lay in the range of 140 to 142 °C.

`O=C(O)CCc1cc(OCCCc2cn(-c3ccc(C(F)(F)F)cn3)nc2OCc2ccccc2)nn1-c1ccccc1` [Example 71, 3-[3-(3-{3-(benzyloxy)-1-[5-(trifluoromethyl)-2-pyridinyl]-1H-pyrazol-4-yl}propoxy)-1-phenyl-1H-pyrazol-5-yl]propanoic acid]: the melting point was 159 to 161 °C.

Take `CCCc1nn(-c2ccc(C(F)(F)F)cn2)cc1CCCOc1cc(CCC(=O)O)n(C)n1` [Example 45, 3-[1-methyl-3-(3-{3-propyl-1-[5-(trifluoromethyl)-2-pyridyl]-1H-pyrazol-4-yl}propoxy)-1H-pyrazol-5-yl]propionic acid]: the melting point lay in the range of 80 to 81 °C.

Molecule `CCOc1nn(-c2ccc(C(F)(F)F)cn2)cc1CCCOc1c(CCC(=O)O)cccc1OC` [Example 145, 3-[2-(3-{3-ethoxy-1-[5-(trifluoromethyl)-2-pyridyl]-1H-pyrazol-4-yl}propoxy)-3-methoxyphenyl]propionic acid] yielded a melting point of 87 to 88 °C.

Turning to `CCOc1cc(OCCCc2cn(-c3ccc(C(F)(F)F)cc3)nc2OCC)ccc1CCC(=O)O` [Example 114, 3-[2-ethoxy-4-(3-{3-ethoxy-1-[4-(trifluoromethyl)phenyl]-1H-pyrazol-4-yl}propoxy)phenyl]propanoic acid], the melting point was in the range of 131 to 132 °C.

`CCOc1nn(-c2ccc(C(F)(F)F)cn2)cc1CCCOc1cc(CCC(=O)O)n(C2CCCCC2)n1` [Example 257, 3-[1-cyclohexyl-3-(3-{3-ethoxy-1-[5-(trifluoromethyl)-2-pyridyl]-1H-pyrazol-4-yl}propoxy)-1H-pyrazol-5-yl]propanoic acid] showed a melting point of 89 to 90 °C.

The molecule `COc1cccc(CC(=O)O)c1OCCCc1cn(-c2ccc(NS(C)(=O)=O)cn2)nc1C(C)C` [Example 269, (3-methoxy-2-{3-[3-isopropyl-1-(5-methylsulfonylamino-2-pyridyl)-1H-pyrazol-4-yl]propoxy}phenyl)acetic acid] came in with a melting point of 176 to 177 °C.
